{"source": "patent EP1781294B1", "about": "“COMPOSITION FOR IMPROVED BIOAVAILABILITY AND ENHANCED BRAIN DELIVERY OF 5,5-DIPHENYL BARBITURIC ACID” (priority 2004, dated 2006)", "key": {"[1]": {"assay": "Pharmacokinetics of MMMDPB and DPB after oral MMMDPB or NaMMMDPB and intravenous NaMMMDPB", "type": "in vivo, Beagle dogs", "protocol": "(§1) In accordance with the present invention, pharmacokinetic parameters were calculated using standard non-compartmental methods, as implemented in WinNonlin™ 4.0.1. […] The mean, SD and CV (%) were used to calculate the AUC0-t (µg.h/mL), Cmax (µg/ml) (the maximum observed concentration), Tmax (hours) (the time to reach that peak concentration) and Kel (the elimination rate constant) for each animal and each analyte.\n(§2) AUC0-t was calculated using the linear trapezoidal rule, which employs an approximate integration formula. The area of each trapezoid was calculated, and the sum of all the areas of all the trapezoids yielded an estimate of the true area under the curve. (See, Gibaldi et al. Pharmacokinetics. 2nd Ed. Marcel Dekker, Inc., 1982; Yeh et al., A comparison of numerical integrating algorithms by trapezoidal, lagrange, and spline approximations. J. Pharmacokinet Biopharm. 6: 79 (1978), the disclosure of which is herein incorporated by reference.) Cmax and Tmax were then determined for each concentration vs. time profile. Elimination rate constant (Kel) was calculated using regression analyses on the natural log (In) of plasma concentration values (y) versus time (x).\nBlood samples were obtained pre-dose and 0.25, 0.5, 1, 2, 3, 4, 6, 9, 12, 15, 18, and 24 hours after dosing. Venous blood (~1 mL) were drawn and collected in lithium heparin (anticoagulant). Blood samples were spun in a refrigerated centrifuge and plasma were stored at -80°C prior to analysis. […] Calibration curves were obtained using a weighted (1/C^2) least squares linear regression analysis of peak area ratio (analyte/internal standard) versus the nominal concentration of the calibration standards. Concentrations were obtained by interpolation from the run defined calibration curve. Regressions and figures were generated by PE Sciex Analyst Version 1.2 software.\nPlasma samples were thawed and subjected to solid phase extraction with 2 mL acetonitrile prior to HPLC method with Tandem Mass Spectrometry Detection. Chromatographic conditions were performed as followed: […]"}, "[2]": {"assay": "Pharmacokinetics of DPB after oral DPB or NaDPB and intravenous NaDPB", "type": "in vivo, Beagle dogs", "settings": "75 mg/kg, versus oral DPB free acid", "protocol": "as §1, §2\nWe examined the delivery of DPB to the vascular compartment by administrating directly DPB and compared it with the sodium salt of DPB in dogs. […] DPB was quantified in plasma using HPLC (LLOQ=0.25 µg/mL). […]"}, "[3]": {"assay": "Pharmacokinetics of DPB after oral DPB or NaDPB and intravenous NaDPB", "type": "in vivo, Sprague-Dawley rats", "settings": "150 mg/kg; for AUC0-t for DPB greater than after oral administration of DPB / Cmax for DPB greater than after oral administration of DPB: versus oral DPB; for AUC at 24 h: rat, in vivo, analyte DPB, read-out: AU0-24", "protocol": "as §1, §2\n(§3) We examined the delivery of DPB to the vascular compartment by administrating directly DPB and compared it with the sodium salt of DPB. This study compared the pharmacokinetics of DPB after oral administration of DPB (150 mg/kg) and sodium salt of DPB (150 mg/kg) in rats. Fifty-four rats were administered DPB and sodium salt of DPB by a single oral gavage (n=54). Blood samples were obtained (approximately 0.5 mL each) were collected following each treatment from animal via the jugular vein. Blood samplings from groups of 3 rats/sex/time point were collected at various times after dosing, in order to provide the complete time-points of pre-dose, 0, 0.5, 1, 2, 3, 4, 6, 12, 18, 24, 36 and 48 hours after dosing. Each blood sample was collected into a tube containing lithium heparin and the samples were spun in a refrigerated centrifuge. The resultant plasma was stored at -80°C prior to analysis. DPB was quantified in plasma using HPLC (LLOQ=0.25 µg/mL).\nWe calculated AUC0-t for DPB at various times (24, 36 and 48 hours) after oral administrations of DPB and sodium salt of DPB. Table 5: AUCs at various times (24,36 and 48 hours) after Oral Administration of DPB and NaDPB in Beagle Dogs (75 mg/kg, n=28)"}, "[4]": {"tested_on": "maximal electroshock seizure (MES)", "settings": "cited from earlier work"}, "[5]": {"settings": "aqueous solution at pH 7; cited from earlier work"}, "[6]": {"assay": "Brain concentration of DPB after oral DPB or NaDPB and intravenous NaDPB", "type": "in vivo, Sprague-Dawley rats", "settings": "150 mg/kg", "protocol": "as §3\nIn this study, we measured the brain concentration of DPB. Brains were collected as soon as possible after euthanasia from each rat. They were stored in a freezer at -80°C prior to determination of DPB brain tissue concentrations. Table 6 summarizes the brain concentrations of DPB after oral administration of DPB and sodium salt of DPB in Sprague-Dawley rats."}, "[7]": {"settings": "dog, in vivo, iv, 15 mg/kg, IV infusion, analyte DPB"}}, "note": "Like-named read-outs stand apart in the source and are kept apart here.", "data": [{"smiles": "COCN1C(=O)NC(=O)C(c2ccccc2)(c2ccccc2)C1=O", "note": "[NaMMMDPB, sodium monomethoxymethyl-5,5-diphenyt barbiturate]", "values": [{"measurement": "AUC(0-t)", "setting": "[1]; Oral, 30 mg/kg, analyte DPB", "value": 135.10, "unit": "µg·h/mL"}, {"measurement": "AUC(0-t)", "setting": "[1]; dog, in vivo, iv, 15 mg/kg, IV infusion, 15 mg/kg, analyte DPB, read-out: AUC0-t", "value": 59.4, "unit": "µg·h/mL"}, {"measurement": "Cmax", "setting": "[1]; [7]", "value": 8600, "unit": "ng/mL"}, {"measurement": "Tmax", "setting": "[1]; [7]", "value": 3.13, "unit": "h"}, {"measurement": "AUC(0-t)", "setting": "[1]; dog, in vivo, po, 30 mg/kg, Oral, 30 mg/kg, analyte DPB, read-out: AUC0-t", "value": 135, "unit": "µg·h/mL"}, {"measurement": "AUC(0-t)", "setting": "[1]; dog, in vivo, po, 30 mg/kg, Oral, 30 mg/kg, analyte MMMDPB, read-out: AUC0-t", "value": 29.4, "unit": "µg·h/mL"}, {"measurement": "Tmax", "setting": "[1]; dog, in vivo, po, 30 mg/kg, analyte DPB", "value": 7.28, "unit": "h"}, {"measurement": "Cmax", "setting": "[1]; dog, in vivo, po, 30 mg/kg, analyte DPB, plasma, n=8", "value": 11600, "unit": "ng/mL"}, {"measurement": "bioavailability", "setting": "[1]; dog, in vivo, Oral, 30 mg/kg, analyte DPB, read-out: F (absolute bioavailability)", "value": 315, "unit": "%"}]}, {"smiles": "O=C1NC(=O)C(c2ccccc2)(c2ccccc2)C(=O)N1.[Na]", "note": "[NaDPB, sodium 5,5-diphenyl barbiturate]", "values": [{"measurement": "AUC0-t for DPB greater than after oral administration of DPB", "setting": "[2]", "value": "~ 4 fold"}, {"measurement": "Cmax for DPB greater than after oral administration of DPB", "setting": "[2]", "value": "~ 3 fold"}, {"measurement": "AUC0-t for DPB greater than after oral administration of DPB", "setting": "[3]; Oral, female", "value": "~ 2 fold"}, {"measurement": "Cmax for DPB greater than after oral administration of DPB", "setting": "[3]; Oral, female", "value": "~ 1.5 fold"}, {"measurement": "AUC0-t for DPB greater than after oral administration of DPB", "setting": "[3]; Oral, male", "value": "~ 4.5 fold"}, {"measurement": "Cmax for DPB greater than after oral administration of DPB", "setting": "[3]; Oral, male", "value": "~ 2.5 fold"}, {"measurement": "AUC at 24 h", "setting": "[3]; iv, IV infusion, female", "value": 3400, "unit": "µg·h/mL"}, {"measurement": "AUC at 24 h", "setting": "[3]; iv, IV infusion, male", "value": 3160, "unit": "µg·h/mL"}, {"measurement": "AUC at 24 h", "setting": "[3]; po, Oral, female", "value": 1990, "unit": "µg·h/mL"}, {"measurement": "AUC at 24 h", "setting": "[3]; po, Oral, male", "value": 1710, "unit": "µg·h/mL"}]}, {"smiles": "O=C1NC(=O)C(c2ccccc2)(c2ccccc2)C(=O)N1", "note": "[DPB, 5,5-diphenyl barbituric acid]", "values": [{"measurement": "protection", "setting": "[4]; brain concentrations in excess of 10 µg/ml", "value": "≥ 50", "unit": "%"}, {"measurement": "protection", "setting": "[4]; brain concentrations of DPB less than 1 µg/ml", "value": "≤ 20", "unit": "%"}, {"measurement": "Water solubility, less soluble as compared to phenobarbital", "setting": "[5]", "value": "1/100"}, {"measurement": "Mean Brain Concentrations of DPB", "setting": "[6]; female, 24 hr", "value": 7.04, "unit": "µg/g"}, {"measurement": "Mean Brain Concentrations of DPB", "setting": "[6]; female, 36 hr", "value": 6.84, "unit": "µg/g"}, {"measurement": "Mean Brain Concentrations of DPB", "setting": "[6]; female, 48 hr", "value": 5.24, "unit": "µg/g"}, {"measurement": "Mean Brain Concentrations of DPB", "setting": "[6]; male, 24 hr", "value": 3.09, "unit": "µg/g"}, {"measurement": "Mean Brain Concentrations of DPB", "setting": "[6]; male, 36 hr", "value": 3.36, "unit": "µg/g"}, {"measurement": "Mean Brain Concentrations of DPB", "setting": "[6]; male, 48 hr", "value": "BQL"}, {"measurement": "AUC at 24 h", "setting": "[3]; po, Oral, female", "value": 1210, "unit": "µg·h/mL"}, {"measurement": "AUC at 24 h", "setting": "[3]; po, Oral, male", "value": 623, "unit": "µg·h/mL"}]}, {"smiles": "COCN1C(=O)NC(=O)C(c2ccccc2)(c2ccccc2)C1=O", "note": "[MMMDPB, monomethoxymethyl-5,5-diphenyl barbituric acid]", "values": [{"measurement": "AUC(0-t)", "setting": "[1]; Oral, 30 mg/kg, analyte DPB", "value": 193.18, "unit": "µg·h/mL"}, {"measurement": "Tmax", "setting": "[1]; dog, in vivo, Oral, 30 mg/kg, analyte DPB", "value": 9.39, "unit": "h"}, {"measurement": "Cmax", "setting": "[1]; dog, in vivo, Oral, 30 mg/kg, analyte DPB, plasma, n=8", "value": 13900, "unit": "ng/mL"}, {"measurement": "AUC(0-t)", "setting": "[1]; dog, in vivo, Oral, 30 mg/kg, analyte DPB, read-out: AUC0-t", "value": 193, "unit": "µg·h/mL"}]}]}
